Assay in all cases: ≥ marks a high value that may be exact or a test limit, other limits are often not marked, values filed in µg/mL are converted to µM
The test system of experiment [1] is Streptococcus gordonii Challis DL1.
The subject of experiment [2] is Pseudomonas aeruginosa PAK.
In experiment [3] the test system is Streptococcus mutans UA159.
The test system of experiment [4] is Streptococcus mitis ATCC 903.
Experiment [5] has as its system Staphylococcus aureus.
Experiment [6] has as its system Streptococcus sanguinis NY101.
The subject of experiment [7] is Klebsiella pneumoniae DSM 681.
For experiment [8], the system named is Micrococcus luteus ATCC 10240.
Experiment [9] deals with Bacillus subtilis DSM 347.
Experiment [10] has as its system Escherichia coli BL21AI.
Experiment [11] deals with Escherichia coli DSM 1103.
The subject of experiment [12] is Escherichia coli DC2.
The subject of experiment [13] is Staphylococcus aureus ATCC 29213.
Experiment [14] relates to Bacillus subtilis ATCC 23857.
Experiment [15] concerns Pseudomonas aeruginosa 73.
In experiment [16] the test system is Escherichia coli 804.
Experiment [17] relates to Pseudomonas aeruginosa ATCC 9027.
In experiment [18] the test system is Acinetobacter baumannii 9931.
Experiment [19] concerns Acinetobacter baumannii 97830.
Experiment [20] deals with Staphylococcus aureus 75.
Experiment [21] relates to Staphylococcus aureus 113.
In experiment [22] the test system is Acinetobacter baumannii ATCC 19606.
The subject of experiment [23] is Pseudomonas aeruginosa ATCC 27853.
In experiment [24] the test system is Staphylococcus epidermidis ATCC 12228.
For experiment [25], the system named is Pseudomonas aeruginosa 50.
For experiment [26], the system named is Escherichia coli 780.
Experiment [27] relates to Staphylococcus aureus ATCC 25923.
The subject of experiment [28] is Klebsiella pneumoniae ATCC 700603.
Experiment [29] has as its system Escherichia coli ATCC 25922.
The subject of experiment [30] is Escherichia coli IFO 3301.
Experiment [31] deals with Bacillus subtilis IFO 3336.
Experiment [32] concerns Rhodococcus rhodochrous X15.
In experiment [33] the test system is Staphylococcus carnosus KHS.
Experiment [34] deals with Staphylococcus aureus ATCC 2592.
In experiment [35] the test system is Serratia rubidaea X01.
Experiment [36] deals with Bacillus licheniformis X39.
The test system of experiment [37] is Psychrobacter faecalis X29.

≈ marks a conversion by molar mass, not a printed value. Where “and” joins values, the source holds several entries; their conditions need not be identical. Equal entries are not always repeated.

`CC[C@H](C)[C@H](NC(=O)[C@H](Cc1ccccc1)NC(=O)[C@H](Cc1cnc[nH]1)NC(=O)[C@H](CCCCN)NC(=O)[C@@H](NC(=O)[C@@H](N)Cc1ccccc1)[C@@H](C)CC)C(=O)N[C@@H](Cc1cnc[nH]1)C(=O)N[C@@H](CCCN=C(N)N)C(=O)N[C@@H](Cc1ccccc1)C(=O)NCC(=O)NCC(=O)NCC(=O)N[C@@H](Cc1ccccc1)C(=O)N[C@@H](CCCCN)C(=O)N[C@@H](CCCCN)C(=O)N[C@@H](Cc1ccccc1)C(=O)N[C@@H](Cc1c[nH]c2ccccc12)C(=O)N[C@@H](CCCCN)C(=O)N[C@@H](Cc1c[nH]c2ccccc12)C(=O)N[C@@H](Cc1ccccc1)C(=O)N[C@@H](CCCN=C(N)N)C(=O)N[C@@H](CCCN=C(N)N)C(=O)N[C@@H](Cc1ccccc1)C(N)=O` [FIKHFIHRFGGGFKKFWKWFRRF]: the MIC in [1] turned out to be 20.3 µM (≈ 62.5 µg/mL); in experiment [2] it was 20.3 µM (≈ 62.5 µg/mL); in experiment [3], 1.3 µM (≈ 4 µg/mL); in [4], 10.4 µM (≈ 32 µg/mL); in experiment [5], 5.21 µM (≈ 16 µg/mL); in [6], 5.21 µM (≈ 16 µg/mL).
In the case of `CC[C@H](C)[C@H](NC(=O)[C@H](Cc1ccc(O)cc1)NC(=O)[C@@H](NC(=O)[C@@H]1CCCN1C(=O)[C@H](CCCCN)NC(=O)[C@H](CC(N)=O)NC(=O)[C@H](CC(N)=O)NC(=O)CN)C(C)C)C(=O)N1CCC[C@H]1C(=O)N[C@@H](CCCN=C(N)N)C(=O)N1CCC[C@H]1C(=O)N[C@@H](CCCN=C(N)N)C(=O)N1CCC[C@H]1C(=O)N1CCC[C@H]1C(=O)N[C@@H](Cc1cnc[nH]1)C(=O)N1CCC[C@H]1C(=O)N[C@@H](CCCN=C(N)N)C(=O)N[C@@H](CC(C)C)C(=O)N[C@H](C(N)=O)C(C)C` [GNNKPVYIPRPRPPHPRLV], the MIC in experiment [7] was 14.2 µM (≈ 31.2 µg/mL); in experiment [8] it was 0.109 µM (≈ 0.24 µg/mL); in experiment [9], at least 56.6 µM; in experiment [10], 3.54 µM (≈ 7.81 µg/mL); in [11] it was 1.77 µM (≈ 3.9 µg/mL); in experiment [12], 3.54 µM (≈ 7.81 µg/mL).
As for `CC[C@H](C)[C@H](NC(=O)[C@H](Cc1ccc(O)cc1)NC(=O)[C@@H](NC(=O)[C@@H]1CCCN1C(=O)[C@H](CCCN=C(N)N)NC(=O)[C@H](CC(N)=O)NC(=O)[C@H](CC(N)=O)NC(=O)CNC(C)=O)C(C)C)C(=O)N1CCC[C@H]1C(=O)N[C@@H](CCCN=C(N)N)C(=O)N1CCC[C@H]1C(=O)N[C@@H](CCCN=C(N)N)C(=O)N1CCC[C@H]1C(=O)N1CCC[C@H]1C(=O)N[C@@H](Cc1cnc[nH]1)C(=O)N1CCC[C@H]1C(=O)N[C@@H](CCCN=C(N)N)C(=O)N[C@@H](CC(C)C)C(N)=O` [GNNRPVYIPRPRPPHPRL], the minimal inhibitory concentration (MIC) in [7] is 1.83 µM (≈ 3.97 µg/mL); in experiment [8] it was 0.913 µM (≈ 1.99 µg/mL); in experiment [9], at least 58.5 µM; in [10] it was 1.49 µM (≈ 3.25 µg/mL); in [11] it was 1.83 µM (≈ 3.97 µg/mL); in experiment [12], 1.83 µM (≈ 3.97 µg/mL).
As to `NCC(=O)N[C@@H](CCCN=C(N)N)C(=O)N[C@@H](Cc1c[nH]c2ccccc12)C(=O)N[C@@H](Cc1c[nH]c2ccccc12)C(=O)N[C@@H](Cc1c[nH]c2ccccc12)C(=O)N[C@@H](CCCN=C(N)N)C(=O)NCC(N)=O` [GRWWWRG], the MIC is 8 µM (≈ 8.02 µg/mL) in experiment [13]; 16 µM (≈ 16 µg/mL) in experiment [14]; at least 128 µM in [15]; at least 128 µM in experiment [16]; above 128 µM in [17]; at least 128 µM in [18]. Moreover, the MIC in experiment [19] is at least 128 µM; in experiment [20] it was at least 64 µM; in experiment [21], at least 64 µM; in experiment [22] it was above 128 µM; in experiment [23], above 128 µM; in [24] it was 64 µM (≈ 64.1 µg/mL). In addition, the MIC in experiment [25] was at least 128 µM; in experiment [26], at least 128 µM; in [27], 64 µM and 128 µM; in [28], above 128 µM; in experiment [29], above 128 µM.
As for `NC(N)=NCCC[C@H](NC(=O)[C@H](Cc1cnc[nH]1)NC(=O)[C@H](CCCN=C(N)N)NC(=O)[C@H](Cc1cnc[nH]1)NC(=O)[C@H](CCCN=C(N)N)NC(=O)[C@H](Cc1cnc[nH]1)NC(=O)[C@@H](N)CCCN=C(N)N)C(=O)N[C@@H](Cc1cnc[nH]1)C(=O)O` [RHRHRHRH], the MIC in [30] and in experiment [31] was 8.39 µM (≈ 10 µg/mL) each time.
For the compound `CC[C@H](C)[C@H](NC(=O)CNC(=O)[C@H](CCCCN)NC(=O)[C@@H](NC(=O)[C@H](CC(C)C)NC(=O)CNC(=O)[C@H](CC(N)=O)NC(=O)[C@H](CCCCN)NC(=O)[C@@H](NC(=O)[C@H](Cc1c[nH]c2ccccc12)NC(=O)[C@H](CO)NC(=O)CNC(=O)[C@H](CCCCN)NC(=O)CNC(=O)[C@H](CCCCN)NC(=O)[C@H](CCCCN)NC(=O)[C@H](Cc1ccccc1)NC(=O)[C@H](CO)NC(=O)[C@@H](NC(=O)[C@@H](N)CCCN=C(N)N)[C@@H](C)CC)[C@@H](C)CC)[C@@H](C)CC)C(=O)N[C@@H](CCCCN)C(=O)NCC(=O)N[C@@H](CC(C)C)C(=O)NCC(=O)N[C@@H](CCCCN)C(=O)N[C@@H](CCC(=O)O)C(=O)N[C@H](C(=O)N[C@@H](CO)C(=O)N[C@@H](CC(C)C)C(=O)N[C@@H](CC(=O)O)C(=O)N[C@H](C(=O)N[C@H](C(=O)N[C@@H](CCCN=C(N)N)C(=O)N[C@H](C(=O)NCC(=O)N[C@H](C(=O)N[C@@H](CC(=O)O)C(=O)N[C@H](C(=O)N[C@@H](C)C(=O)NCC(=O)N[C@H]1CSSC[C@@H](C(=O)O)NC(=O)[C@H](CCC(=O)O)NC(=O)CNC(=O)[C@H](CCCCN)NC(=O)[C@H]([C@@H](C)CC)NC(=O)[C@H](CCCCN)NC1=O)[C@@H](C)CC)[C@@H](C)CC)[C@@H](C)O)[C@@H](C)CC)C(C)C)[C@@H](C)CC` [RISFKKGKGSWIKNGLIKGIKGLGKEISLDVIRTGIDIAGCKIKGEC], the minimal inhibitory concentration (MIC) in [32] stood at 0.3 µM (≈ 1.51 µg/mL); in experiment [33], 1.3 µM (≈ 6.54 µg/mL); in [34], 0.6 µM (≈ 3.02 µg/mL); in experiment [35] it was 10 µM (≈ 50.3 µg/mL); in [36], 10 µM (≈ 50.3 µg/mL); in [37], 0.6 µM (≈ 3.02 µg/mL). The MIC in experiment [29] worked out at 5 µM (≈ 25.1 µg/mL).
With `CC(C)[C@H](N)C(=O)N[C@@H](CCCN=C(N)N)C(=O)N[C@@H](Cc1c[nH]c2ccccc12)C(=O)N[C@@H](Cc1c[nH]c2ccccc12)C(=O)N[C@@H](Cc1c[nH]c2ccccc12)C(=O)N[C@@H](CCCN=C(N)N)C(=O)N[C@H](C(N)=O)C(C)C` [VRWWWRV], the MIC in [13] was 32 µM (≈ 34.8 µg/mL); in [14] it was 8 µM (≈ 8.69 µg/mL); in [15] it was at least 128 µM; in [16], at least 64 µM; in experiment [17], 64 µM (≈ 69.5 µg/mL); in experiment [18], at least 128 µM. Also, the MIC was at least 128 µM in experiment [19]; at least 32 µM in experiment [20]; at least 32 µM in experiment [21]; 128 µM (≈ 139 µg/mL) in experiment [22]; 64 µM (≈ 69.5 µg/mL) in experiment [23]; 8 µM (≈ 8.69 µg/mL) in [24]. In addition, the MIC in experiment [25] is at least 64 µM; in [26] it was at least 64 µM; in [28], 64 µM (≈ 69.5 µg/mL).

These data come from DBAASP.
